Target: T1, Nanoluciferase-BRD9 fusion protein (3×FLAG-NLuc-BRD9) in SYO-1 cells (Homo sapiens, UniProt Q9H8M2)
T1 construct: expressed in transfected cells; host or cells: SYO-1
T1 sequence (Q9H8M2 1-597): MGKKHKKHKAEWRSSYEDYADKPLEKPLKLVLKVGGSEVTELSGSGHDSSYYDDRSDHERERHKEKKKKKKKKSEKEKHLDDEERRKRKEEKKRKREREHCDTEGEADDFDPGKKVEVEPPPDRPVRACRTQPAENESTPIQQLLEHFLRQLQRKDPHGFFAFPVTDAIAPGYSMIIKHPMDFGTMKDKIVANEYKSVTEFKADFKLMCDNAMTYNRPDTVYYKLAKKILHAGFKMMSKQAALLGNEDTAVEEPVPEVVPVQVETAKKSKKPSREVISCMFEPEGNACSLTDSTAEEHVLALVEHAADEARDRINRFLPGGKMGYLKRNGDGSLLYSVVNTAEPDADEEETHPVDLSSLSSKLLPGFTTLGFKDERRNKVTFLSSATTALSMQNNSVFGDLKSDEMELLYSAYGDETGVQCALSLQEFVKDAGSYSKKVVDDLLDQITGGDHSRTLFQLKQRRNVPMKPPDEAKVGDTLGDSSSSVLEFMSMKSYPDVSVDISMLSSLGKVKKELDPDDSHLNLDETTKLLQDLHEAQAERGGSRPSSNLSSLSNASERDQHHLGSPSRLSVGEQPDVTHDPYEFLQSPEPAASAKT
Assay: SYO1 BRD9 NanoLuc Degradation Assay
Assay type: cell-based
Settings: Table 6B; SYO-1 cells expressing 3×FLAG-NLuc-BRD9, 6 hours incubation, 1 μM top dose; read-out: SYO1 BRD9-NanoLuc degradation IC50
Method in brief: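 NanoLuc signal, read by Nano-Glo luminescence after 6 h compound exposure, gives % inhibition against DMSO-treated cells (high control) and cells given 1 μM of a standard BRD9 degrader (low control). Test compounds ran as 10-point 3-fold series, top 1 μM final, in duplicate on SYO-1 cells stably expressing 3×FLAG-NLuc-BRD9.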

CNc1cc2c(=O)n(C)cc(-c3cc(OC)c(CN(C)CC45CC(C(=O)NCCCCCOc6ccc7c(c6)C(=O)N(C6CCC(=O)NC6=O)C7=O)(C4)C5)c(OC)c3)c2cn1 (centres unmarked) [Compound D173] and CCc1cc(-c2cn(C)c(=O)c3cnc(N(C)C)cc23)cc(OC)c1CN1CCC(CN2CCC3(CC2)CC(Oc2ccc4c(c2)C(=O)N(C2CCC(=O)NC2=O)C4=O)C3)CC1 (centres unmarked) [Compound D174] cannot be ordered by DC50: under 10 nM for the first, under 10 nM for the second.

Going from COc1cc(-c2cn(C)c(=O)c3cnc(OC(F)F)cc23)cc(OC)c1CN1CC(CN2CCC3(CC2)CN(c2ccc4c(c2)C(=O)N(C2CCC(=O)NC2=O)C4)C3)C1 (centres unmarked) [Compound D175] to COc1cc2c(-c3cc(OC)c(CN4CC(CN5CCC6(CC5)CN(c5ccc7c(c5)C(=O)N(C5CCC(=O)NC5=O)C7)C6)C4)c(OC)c3)cn(C)c(=O)c2cn1 (centres unmarked) [Compound D184], the DC50 falls from at least 1000 nM to under 10 nM.

Going from COc1cc(-c2cn(C)c(=O)c3ccc(N4CCC4)cc23)cc(OC)c1CN1CCC(N2CCN(c3ccc4c(c3)CN(C3CCC(=O)NC3=O)C4=O)CC2)CC1 (centres unmarked) [Compound D176] to COc1cc(-c2cn(C)c(=O)c3ccc(N4CCC4)cc23)cc(OC)c1CN1CCC(C2CCN(c3ccc4c(c3)CN(C3CCC(=O)NC3=O)C4=O)CC2)CC1 (centres unmarked) [Compound D181], the DC50 rises from under 10 nM to at least 1000 nM.

Going from COc1cc(-c2cn(C)c(=O)c3cnc(N4CCC4)cc23)cc(OC)c1CN1CC(N2CCC(c3ccc4c(c3)CN(C3CCC(=O)NC3=O)C4=O)CC2)C1 (centres unmarked) [Compound D177] to COc1cc(-c2cn(C)c(=O)c3cnc(N4CCC4)cc23)cc(OC)c1CN1CC(N2CCC(c3ccc4c(c3)C(=O)N(C3CCC(=O)NC3=O)C4)CC2)C1 (centres unmarked) [Compound D179], the DC50 rises from under 10 nM to at least 1000 nM.

COc1cc(-c2cn(C)c(=O)c3cnc(N4CCOCC4)cc23)cc(OC)c1CN1CCC(CN2CCC3(CC2)CC(Oc2ccc4c(c2)C(=O)N(C2CCC(=O)NC2=O)C4=O)C3)CC1 (centres unmarked) [Compound D178] and COc1cc(-c2cn(C)c(=O)c3cnc(N4CCC4)nc23)cc(OC)c1CN1CCC(CN2CCC3(CC2)CC(Oc2ccc4c(c2)CN(C2CCC(=O)NC2=O)C4=O)C3)CC1 (centres unmarked) [Compound D182] cannot be ordered by DC50: under 10 nM for the first, under 10 nM for the second.

COc1cc(-c2cn(C)c(=O)c3ccc(N4CCC4)cc23)cc(OC)c1CN1CCC(N2CCC(c3ccc4c(c3)CN(C3CCC(=O)NC3=O)C4=O)CC2)CC1 (centres unmarked) [Compound D183] showed a DC50 of at least 1000 nM.

Same assay, conditions: Table 6C; SYO-1 cells expressing 3×FLAG-NLuc-BRD9, 6 hours incubation, 1 μM top dose; read-out: SYO1 BRD9-NanoLuc degradation IC50

COc1cc(-c2cn(C)c(=O)c3cnc(N4CCC4)cc23)cc(OC)c1CN1CC(C(C)(C)N2CCC3(CC2)CN(c2ccc4c(c2)CN(C2CCC(=O)NC2=O)C4=O)C3)C1 (centres unmarked) [Compound D185] and COc1cc(-c2cn(C)c(=O)c3cnc(N4CCC4)cc23)cc(OC)c1CN1CC(C(C)(C)N2CCC3(CC2)CN(c2ccc4c(c2)C(=O)N(C2CCC(=O)NC2=O)C4)C3)C1 (centres unmarked) [Compound D192] cannot be ordered by DC50: under 10 nM for the first, under 10 nM for the second.

COc1cc(-c2cn(C)c(=O)c3cnc(C(F)(F)F)cc23)cc(OC)c1CN1CC(CN2CCC3(CC2)CN(c2ccc4c(c2)C(=O)N(C2CCC(=O)NC2=O)C4)C3)C1 (centres unmarked) [Compound D186] and COc1cc(-c2cn(C)c(=O)c3cnc(C4CC4)cc23)cc(OC)c1CN1CC(CN2CCC3(CC2)CN(c2ccc4c(c2)C(=O)N(C2CCC(=O)NC2=O)C4)C3)C1 (centres unmarked) [Compound D193] cannot be ordered by DC50: under 10 nM for the first, under 10 nM for the second.

COc1cc(-c2cn(C)c(=O)c3cnc(N4CCC4)cc23)cc(OC)c1CN1CCC(CN2CCC3(CC2)CC(Oc2ccc4c(c2)C(=O)N(C2CCC(=O)NC2=O)C4)C3)CC1 (centres unmarked) [Compound D187] and COc1cc(-c2cn(C)c(=O)c3cnc(N4CCOCC4)cc23)cc(OC)c1CN1CCC(CN2CCC3(CC2)CC(Oc2ccc4c(c2)C(=O)N(C2CCC(=O)NC2=O)C4)C3)CC1 (centres unmarked) [Compound D194] cannot be ordered by DC50: under 10 nM for the first, under 10 nM for the second.

COc1cc(-c2cn(C)c(=O)c3cnc(S(N)(=O)=O)cc23)cc(OC)c1CN1CCC(CN2CCC3(CC2)CC(Oc2ccc4c(c2)C(=O)N(C2CCC(=O)NC2=O)C4)C3)CC1 (centres unmarked) [Compound D188] and COc1cc(-c2cn(C)c(=O)c3cnc(C(C)(C)C)cc23)cc(OC)c1CN1CCC(CN2CCC3(CC2)CC(Oc2ccc4c(c2)C(=O)N(C2CCC(=O)NC2=O)C4)C3)CC1 (centres unmarked) [Compound D214] cannot be ordered by DC50: under 10 nM for the first, under 10 nM for the second.

COc1cc(-c2cn(C)c(=O)c3cnc(N(C)C)cc23)cc(Cl)c1C(=O)N1CCN(CCC2CCN(c3ccc4c(c3)CN(C3CCC(=O)NC3=O)C4=O)CC2)CC1 (centres unmarked) [Compound D189] and [2H]C([2H])([2H])N(c1cc2c(-c3cc(OC)c(CN4CCN(CCC5CCN(c6ccc7c(c6)C(=O)N(C6CCC(=O)NC6=O)C7)CC5)CC4)c(OC)c3)cn(C)c(=O)c2cn1)C([2H])([2H])[2H] (centres unmarked) [Compound D197] cannot be ordered by DC50: under 10 nM for the first, under 10 nM for the second.

First: COc1cc(-c2cn(C)c(=O)c3cnc(C(C)(C)CO)cc23)cc(OC)c1CN1CCC(CN2CCC3(CC2)CC(Oc2ccc4c(c2)C(=O)N(C2CCC(=O)NC2=O)C4)C3)CC1 (centres unmarked) [Compound D190]
Second: COc1cc(-c2nn(C)c(=O)c3cnc(N4CCC4)cc23)cc(OC)c1CN1CCC(CN2CCC3(CC2)CC(Oc2ccc4c(c2)C(=O)N(C2CCC(=O)NC2=O)C4)C3)CC1 (centres unmarked) [Compound D191]
The DC50 of the first is lower: under 10 nM for the first, 100 to 1000 nM for the second.

COc1cc(-c2cn(C)c(=O)c3cnc(C4CC4)cc23)cc(OC)c1CN1CCC(C(N2CCC3(CC2)CC(Oc2ccc4c(c2)C(=O)N(C2CCC(=O)NC2=O)C4=O)C3)C(F)(F)F)CC1 (centres unmarked) [Compound D195] and COc1cc(-c2cn(C)c(=O)c3cnc(N4CCOCC4)cc23)cc(OC)c1CN1CCC(C(N2CCC3(CC2)CC(Oc2ccc4c(c2)C(=O)N(C2CCC(=O)NC2=O)C4=O)C3)C(F)(F)F)CC1 (centres unmarked) [Compound D196] cannot be ordered by DC50: under 10 nM for the first, under 10 nM for the second.

[2H]C([2H])([2H])Oc1cc2c(-c3cc(OC)c(CN4CCN(CCC5CCN(c6ccc7c(c6)C(=O)N(C6CCC(=O)NC6=O)C7)CC5)CC4)c(OC)c3)cn(C)c(=O)c2cn1 (centres unmarked) [Compound D198] and CCOC1CC1c1cc2c(-c3cc(OC)c(CN4CCN(CCC5CCN(c6ccc7c(c6)C(=O)N(C6CCC(=O)NC6=O)C7)CC5)CC4)c(OC)c3)cn(C)c(=O)c2cn1 (centres unmarked) [Compound D203] cannot be ordered by DC50: under 10 nM for the first, under 10 nM for the second.

COc1cc2c(-c3cc(OC)c(CN4CCC(CCN5CCC6(CC5)CN(c5ccc7c(c5)C(=O)N(C5CCC(=O)NC5=O)C7)C6)CC4)c(OC)c3)cn(C)c(=O)c2cn1 (centres unmarked) [Compound D199] and COc1cc(-c2cn(C)c(=O)c3cnc(N4CC(C)(OC)C4)cc23)cc(OC)c1CN1CCC(CN2CCC3(CC2)CN(c2ccc4c(c2)C(=O)N(C2CCC(=O)NC2=O)C4)C3)CC1 (centres unmarked) [Compound D209] cannot be ordered by DC50: under 10 nM for the first, under 10 nM for the second.

COc1cc(-c2cn(C)c(=O)c3cnc(N4CC(F)C4)cc23)cc(OC)c1CN1CC(CN2CCC3(CC2)CN(c2ccc4c(c2)C(=O)N(C2CCC(=O)NC2=O)C4)C3)C1 (centres unmarked) [Compound D200] and COc1cc(-c2cn(C)c(=O)c3cnc(N4CC(F)C4)cc23)cc(OC)c1CN1CCC(CN2CCC3(CC2)CN(c2ccc4c(c2)C(=O)N(C2CCC(=O)NC2=O)C4)C3)CC1 (centres unmarked) [Compound D206] cannot be ordered by DC50: under 10 nM for the first, under 10 nM for the second.

COc1cc(-c2cn(C)c(=O)c3cnc(N4CC5(CC5)C4)cc23)cc(OC)c1CN1CC(CN2CCC3(CC2)CN(c2ccc4c(c2)C(=O)N(C2CCC(=O)NC2=O)C4)C3)C1 (centres unmarked) [Compound D201] and COc1cc(-c2cn(C)c(=O)c3cnc(N4CC(F)(F)C4)cc23)cc(OC)c1CN1CC(CN2CCC3(CC2)CN(c2ccc4c(c2)C(=O)N(C2CCC(=O)NC2=O)C4)C3)C1 (centres unmarked) [Compound D211] cannot be ordered by DC50: under 10 nM for the first, under 10 nM for the second.

COc1cc(-c2cn(C)c(=O)c3cnc(N4CCC4)cc23)cc(OC)c1CN(C)c1ccc2c(c1)CN(C1CCC(=O)NC1=O)C2=O (centres unmarked) [Compound D202] and COc1cc(-c2cn(C)c(=O)c3cnc(N4CC[C@H]4C)cc23)cc(OC)c1CN1CC(CN2CCC3(CC2)CN(c2ccc4c(c2)C(=O)N(C2CCC(=O)NC2=O)C4)C3)C1 (some centres unmarked) [Compound D212] cannot be ordered by DC50: under 10 nM for the first, under 10 nM for the second.

CCOC1CC1c1cc2c(-c3cc(OC)c(CN4CCN(CCC5CCN(c6ccc7c(c6)C(=O)N(C6CCC(=O)NC6=O)C7=O)CC5)CC4)c(OC)c3)cn(C)c(=O)c2cn1 (centres unmarked) [Compound D204] and COc1cc(-c2cn(C)c(=O)c3cnc(N4CC[C@@H]4C)cc23)cc(OC)c1CN1CCC(CN2CCC3(CC2)CN(c2ccc4c(c2)C(=O)N(C2CCC(=O)NC2=O)C4)C3)CC1 (some centres unmarked) [Compound D207] cannot be ordered by DC50: under 10 nM for the first, under 10 nM for the second.

First: COc1cc(-c2cn(C)c(=O)c3cnc(N4CC5(CC5)C4)cc23)cc(OC)c1CN1CCC(CN2CCC3(CC2)CN(c2ccc4c(c2)C(=O)N(C2CCC(=O)NC2=O)C4)C3)CC1 (centres unmarked) [Compound D205]
Second: COc1cc(-c2cn(C)c(=O)c3cnc(N4CC[C@H]4C)cc23)cc(OC)c1CN1CCC(CN2CCC3(CC2)CN(c2ccc4c(c2)C(=O)N(C2CCC(=O)NC2=O)C4)C3)CC1 (some centres unmarked) [Compound D208]
The DC50 of the first is higher: 10 to 100 nM for the first, under 10 nM for the second.

COc1cc(-c2cn(C)c(=O)c3cnc(N4CC(C)(OC)C4)cc23)cc(OC)c1CN1CC(CN2CCC3(CC2)CN(c2ccc4c(c2)C(=O)N(C2CCC(=O)NC2=O)C4)C3)C1 (centres unmarked) [Compound D210] and COc1cc(-c2cn(C)c(=O)c3cnc(N4CC[C@@H]4C)cc23)cc(OC)c1CN1CC(CN2CCC3(CC2)CN(c2ccc4c(c2)C(=O)N(C2CCC(=O)NC2=O)C4)C3)C1 (some centres unmarked) [Compound D213] cannot be ordered by DC50: under 10 nM for the first, under 10 nM for the second.
